Reference: PubChem BioAssay AID179 (DTP/NCI, 2004)
pEC50, pIC50: −log10 of the molar value. Where “and” joins values, the source holds several entries; their conditions need not be identical. Equal values may be shown once. Calls of active or inactive are those of the source.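 The calls were made as follows: active = compounds giving half or more protection of infected cells from virus-caused growth loss, again on retest; inactive = the rest.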

Tested on: CEM cells HIV-1 protection, formazan growth assay
Test: NCI AIDS Antiviral Assay
Settings: for pIC50: measured here: growth of uninfected CEM cells
In short: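 Category rules: moderately active means at least 50% protection on retest, and confirmed active means 100% protection reproducibly. The underlying data came from a formazan growth assay in HIV-1-infected CEM cells.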

Compound | pEC50 | pIC50 | outcome
O=[N+]([O-])c1ccc(C2=NOC(c3ccccc3)N2C23CC4CC(CC(C4)C2)C3)cc1 (centres undefined) | < 3.70 | 3.97 | –
c1ccc(-c2c[se]nn2)cc1 | < 3.76 | 4.03 | –
COc1ccc2c(c1)C(=O)CC=C(C(=O)O)N2 | < 3.70 | < 3.70 | –
COC(=O)c1noc2c1CSC1=C2CS(=O)(=O)c2ccccc21 | < 3.70 | < 3.70 | –
O=C1C(Cl)C(c2ccc(O)cc2)N1n1cnc2ccccc2c1=O (centres undefined) | < 4.82 | < 4.82 | –
O=C1C=C(C(O)CCO)C(=O)c2c(O)ccc(O)c21 (centres undefined) | – | – | inactive
ClC1=NN=C(c2c[nH]c3ccccc23)CC1NCc1ccccc1 (centres undefined) | < 3.70 | < 3.70 | –
COc1cc([C@H]2Oc3c(OC)cc(/C=C/C(N)=O)cc3[C@@H]2C(N)=O)ccc1O | < 3.70 | < 3.70 | –
CCCCCCCCCCCCCCCCCCOP(=O)([O-])OC1CC[N+](C)(C)CC1 | < 3.69 | 5.72 | –
COc1c(C(=O)c2cc(Cl)cc(S(=O)(=O)N(C)C=O)c2OC)cc(Cl)cc1S(=O)(=O)N(C)C=O | < 4.33 | < 4.33 | –
O=C(COc1ccccc1Cl)N1N=C(c2ccc(Cl)cc2)CC1(O)c1ccccc1 (centres undefined) | < 5.34 | < 5.34 | –
COc1ccc(/C=C2/SC(=Nc3ccccc3)N(NC(=O)Cc3ccccc3)C2=O)c(OC)c1 | < 4.12 | < 4.12 | –
CC1OC(Oc2ccc3c(=O)c(-c4ccc(O)cc4)coc3c2)C(O)C(O)C1O (centres undefined) | < 3.70 | 4.03 | –
CCN(CC)CC(=O)Nc1ccc(C(=O)OCC(C)C)cc1 | < 3.70 | 4.57 | –
CC(C)CCC(=O)c1ccoc1 | < 2.82 | < 2.82 | –
COc1ccc(CN2CCC/C=C/CC(Cl)(Cl)C2=O)cc1 | < 3.96 | 4.24 | –
O=c1[nH]cnc(O)c1N=Nc1ccc(/C=C/c2ccc(N=Nc3c(O)nc[nH]c3=O)cc2S(=O)(=O)O)c(S(=O)(=O)O)c1 | < 4.20 | < 4.20 | –
CCOC(=O)Cn1nc2oc(=O)c(CCN3CCN(c4ccccc4OC)CC3)c(C)c2c1C | < 3.70 | < 3.70 | –
CCOC(=O)C(C(O)c1ccc([N+](=O)[O-])cc1)P(=O)(OCC)OCC (centres undefined) | < 3.18 | 4.03 | –
CCOC(=O)c1c(N2CCCC2)ncn(C)c1=S | < 3.70 | < 3.70 | –
CCC1CC(C)=CCN1S(=O)(=O)c1ccc(C)cc1 (centres undefined) | < 4.73 | < 4.73 | –
C/C(CN1C(=O)c2ccccc2C1=O)=N\NS(=O)(=O)c1ccc2ccccc2c1 | < 3.35 | < 3.35 | –

Compound | pEC50 | pIC50 | outcome
S=c1[nH]c(=S)c2nc(Nc3ccccc3)sc2[nH]1 | < 3.21 | < 3.21 | –
O=c1c(-c2ccc(O)cc2)coc2cc(OC3OC(CO)C(O)C(O)C3O)cc(O)c12 (centres undefined) | < 3.70 | < 3.70 | –
Cc1ccc(NC(=O)CC2SC(N)=NC2=O)cc1C (centres undefined) | – | – | inactive
NC1=NCC(c2ccc(Cl)cc2)O1 (centres undefined) | < 3.70 | 4.30 | –
Cc1cc2c(C(C)C)c(O)c(O)c(/C=N\O)c2c(O)c1-c1c(C)cc2c(C(C)C)c(O)c(O)c(/C=N/O)c2c1O | < 3.70 | 5.00 | –
CCOC(=O)c1c(OCCCc2ccc(F)cc2)cc2ccc3ccccc3c2c1OCCCc1ccc(F)cc1 | < 4.74 | < 4.74 | –
NCS(=O)(=O)O | < 3.70 | 4.73 | –
C[N+](C)(C)CCCCCc1c2nc(c(CCCCC[N+](C)(C)C)c3ccc([nH]3)c(CCCCC[N+](C)(C)C)c3ccc([nH]3)c(CCCCC[N+](C)(C)C)c3nc1C=C3)C=C2 | < 4.00 | 4.24 | –
Nc1ncnc2c1ncn2C1OC2(CCSC2)C(O)C1O (centres undefined) | < 3.70 | 3.81 | –
CCN(CC)CCNc1c(OC)c(OC)cc2nccnc12 | < 3.70 | 4.19 | –
COc1cc2ccnc3c2c(c1OC)-c1ccccc1C3=O | – | – | inactive
Cc1cc2c(cc1Cl)SC(C(=O)c1cccc([N+](=O)[O-])c1)=NS2(=O)=O | 3.92 | < 3.70 | –
CCC(=O)O[C@H](C)CC1SCCCS1 | < 3.67 | < 3.67 | –
N=C1OC(CN2CCN(c3ccccc3)CC2)CN1C(=S)Nc1ccccc1 (centres undefined) | < 3.70 | 3.85 | –
COc1cc2c(c(OC)c1OC)[C@@H]1CCCCC[C@@H]1CCC2=O | < 3.60 | 3.95 | –
N#C/C(=C\c1ccc(O)c(O)c1)C(=O)NCCCCCCCCCCNC(=O)/C(C#N)=C/c1ccc(O)c(O)c1 | < 3.70 | 5.56 | –
C/C(=C\c1ccc(F)cc1)C(=O)O | < 3.56 | < 3.56 | –
Nc1c2ccccc2nc2ccc(C(=O)Nc3ccc(S(N)(=O)=O)cc3)cc12 | < 3.70 | < 3.70 | –
CCCCCCCCCCCc1c(O)c(O)cc2nc3cc(C(=O)NC(C(=O)O)C(C)C)ccc3nc12 (centres undefined) | < 4.85 | < 4.85 | –
Cc1ccc(Nc2nc(NS(=O)(=O)c3cc(C)c(Cl)cc3S)n(C)n2)cc1 | < 3.70 | 3.98 | –
CC(=O)OC1CCC2C3CCc4c(C)ccc(OS(=O)(=O)c5ccccc5)c4C3CCC12C (centres undefined) | < 3.70 | < 3.70 | –
CC(C)(C)c1cc[n+](C[n+]2ccc(C(C)(C)C)cc2)cc1 | < 3.70 | < 3.70 | –

Compound | pEC50 | pIC50 | outcome
O=C(CSc1nnc(Cc2ccccc2)o1)Nc1ccc(Cl)cc1[N+](=O)[O-] | < 3.21 | 4.60 | –
Cc1ccc(S(=O)(=O)NC2C(=O)c3ccccc3C(=O)C2n2ccnc2)cc1 (centres undefined) | < 3.70 | 4.06 | –
Cc1cccc(C2=NC(c3ccccc3)C(c3ccccc3)N=C2c2cccc(C)n2)n1 (centres undefined) | < 4.79 | < 4.79 | –
Cc1nc2ccc(S(=O)(=O)Nc3ccccn3)cc2c(=O)n1NS(=O)(=O)c1ccccn1 | < 3.70 | < 3.70 | –
BrCC[N+]12CC[N+](CCBr)(CC1)C2 | < 3.28 | 4.59 | –
CC(C)(C)OC(=O)c1ccc(NCC2=CC(=O)C=CC2=O)cc1 | < 3.70 | 4.99 | –
C=CCCC(O)c1cc(C)c(O)c(C)c1 (centres undefined) | < 3.34 | 3.64 | –
C/C(=N/N(C=O)C[n+]1ccccc1)C(CN(CC(C)C)CC(C)C)C(=O)Nc1ccc(C)cc1C (centres undefined) | < 4.16 | < 4.16 | –
COC1CC(n2cnc3c(N)ncnc32)OC1CO (centres undefined) | < 3.70 | < 3.70 | –
COc1ccc(C(Nc2ccc([N+](=O)[O-])cc2)P(=O)(c2ccccc2)c2ccccc2)cc1 (centres undefined) | < 3.70 | 4.98 | –
C/C(=N\NC(N)=S)c1ccc2c(c1)OCO2 | – | – | inactive
Cc1cccc(N2C(=O)C(Cl)=C(Cl)C2=O)c1 | – | – | inactive
CCCCS(=O)(=O)CCC(N)C(=O)O (centres undefined) | < 4.00 | < 4.00 | –
C=C1C[C@@H]2C[C@@H](C)CC(O)[C@]2(CCCN)C1O (some centres undefined) | – | – | inactive
Nc1ccc2cc(S(=O)(=O)O)cc(O)c2c1N=Nc1ccc(NC(=O)c2ccc(C(=O)Nc3ccc(N=Nc4c(N)ccc5cc(S(=O)(=O)O)cc(O)c45)c(S(=O)(=O)O)c3)cc2)cc1S(=O)(=O)O | – | – | active
Cc1ccc(S(=O)(=O)c2ccc([N+](=O)[O-])cc2)cc1 | – | – | inactive
Nc1nc(N)c(CCc2ccccc2)c(N)n1 | – | – | inactive
Cc1nnc(N)s/c1=N/O | < 3.70 | < 3.70 | –
O=C1CC(C(O)(C(F)(F)F)C(F)(F)Cl)CCC1C(O)(C(F)(F)F)C(F)(F)Cl (centres undefined) | – | – | inactive
CC1=CC(=O)NCCN1C | 3.86 | 2.75 | –
CCN(CC)CCOC(=O)Cc1cccc2c(=O)cc(-c3ccccc3)oc12 | – | – | inactive
COC(=O)C(Cc1nc2ccc(Cl)cc2[nH]c1=O)C(=O)C(=O)Nc1cc(C)ccc1C (centres undefined) | < 3.67 | < 3.67 | –

Compound | pEC50 | pIC50 | outcome
COc1ccc(CC(=O)c2cc(OC)c(OC)cc2C)cc1OC | < 3.40 | 4.51 | –
Nc1ncnc2c1ncn2-c1ccc([N+](=O)[O-])cn1 | – | – | inactive
CC(=O)OC1CC2C(=O)CC1(C)C2(C)C (centres undefined) | < 3.70 | < 3.70 | –
N.N.N.N.O=N[O-].O=N[O-].[Cl-].[Co+3] | – | – | inactive
COC(=O)c1cc2c(c(C(=O)OC)c1)CCC2 | < 3.70 | 4.39 | –
O=[N+]([O-])c1cc(SSc2ccc(Cl)c([N+](=O)[O-])c2)ccc1Cl | < 4.22 | 4.88 | –
O=[N+]([O-])c1ccc(Cl)c([N+](=O)[O-])c1 | < 3.70 | 5.48 | –
N#CCCN(CCC#N)c1ccc(/C=C(/NC(=O)c2cc([N+](=O)[O-])ccc2Cl)C(=O)NN)cc1 | < 4.97 | < 4.97 | –
O=c1nc2sc3ccc4ccccc4c3n2nc1-c1ccccc1 | < 4.31 | < 4.31 | –
Cc1cc(Br)ccc1Nc1nc(N)nc(N)c1N=O | < 3.70 | 4.29 | –
O=C(Nc1cccc(NC(=O)c2nn[nH]n2)n1)c1nn[nH]n1 | < 3.70 | < 3.70 | –
CC(C)=NOC(=O)OC[C@H]1O[C@@H](n2cnc3c(N)ncnc32)C(O)C1O (some centres undefined) | < 3.70 | < 3.70 | –
CN=C1CN=C(OP(=O)(N2CCOCC2)N2CCOCC2)c2cc(Cl)ccc2N1 | < 5.21 | < 5.21 | –
CCOC(=O)/C(F)=C/c1ccc([N+](=O)[O-])cc1 | < 4.38 | < 4.38 | –
O=C1C(Cl)=C(c2ccc(Cl)s2)C(=O)c2ccccc21 | < 4.37 | 5.12 | –
N#Cc1c(NC(=O)CN2CCOCC2)c(C(=O)Nc2ccccc2)n2c1CCCC2 | < 3.70 | < 3.70 | –
CCCCCCCCCCCCCC(=O)OCC1OC(n2cc(F)c(=O)[nH]c2=O)C(NC(=O)OCc2ccccc2)C(OC(=O)CCCCCCCCCCCCC)C1O (centres undefined) | < 4.93 | < 4.93 | –
CN(C)C(=S)SSC(=S)N(C)C | < 3.70 | 5.30 and 5.97 | inactive
CC1=CCC2CC1NC(=O)CCOCCC(=O)NC2(C)C (centres undefined) | < 4.00 | < 4.00 | –
COc1ccc2c(c1)C(O)(C(F)(F)F)c1cc(C(=O)C(F)(F)F)c3ccccc3c1N2 (centres undefined) | < 5.21 | < 5.21 | –
Cc1ncc(-c2nnnn2-c2ccccc2)c(C(=O)O)n1 | < 3.70 | < 3.70 | –
CO/C(=N\N=C\c1ccc(C(F)(F)F)cc1)c1ccncc1 | < 3.93 | 4.16 | –
